Data taken from PubChem BioAssay AID248 (DTP/NCI, 2004).
Values joined by “and” are separate entries in the source; they are usually repeats but may differ in a detail not shown here. Equal entries are not always repeated. Inconclusive results and toxic doses are left out. Rule as the data show it: active = T/C of 150% or more; inactive = T/C below 125%.

Test system: L1210 leukemia ip in BDF1 mice, survival T/C
Assay: NCI In Vivo Anticancer Drug Screen. Data for tumor model L1210 Leukemia (intraperitoneal) in B6D2F1 (BDF1) mice
Details: endpoint: mean survival time, higher = longer survival
Procedure, shortened: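 Each compound was tested against a transplantable tumor grown in mice. The endpoint was survival, with treated animals benchmarked against vehicle controls as a simple ratio.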

[1] = dose: 0.75 mg/kg/injection, schedule: Q01DX Z (ip), vehicle: carboxymethylcellulose (CMC)
[2] = dose: 1.5 mg/kg/injection, schedule: Q01DX Z (ip), vehicle: carboxymethylcellulose (CMC)
[3] = dose: 2.0 mg/kg/injection, schedule: Q01DX009 (ip), vehicle: saline
[4] = dose: 3.0 mg/kg/injection, schedule: Q01DX Z (ip), vehicle: carboxymethylcellulose (CMC)
[5] = dose: 4.0 mg/kg/injection, schedule: Q01DX009 (ip), vehicle: saline
[6] = dose: 6.0 mg/kg/injection, schedule: Q01DX Z (ip), vehicle: carboxymethylcellulose (CMC)
[7] = dose: 8.0 mg/kg/injection, schedule: Q01DX009 (ip), vehicle: saline
[8] = dose: 100.0 mg/kg/injection, schedule: Q01DX009 (ip), vehicle: Klucel (hydroxypropylcellulose) (HPC)
[9] = dose: 200.0 mg/kg/injection, schedule: Q01DX009 (ip), vehicle: Klucel (hydroxypropylcellulose) (HPC)
[10] = dose: 400.0 mg/kg/injection, schedule: Q01DX001 (ip), vehicle: carboxymethylcellulose (CMC)
[11] = dose: 100.0 mg/kg/injection, schedule: Q04DX003 (ip), vehicle: Klucel (hydroxypropylcellulose) (HPC)
[12] = dose: 100.0 mg/kg/injection, schedule: Q01DX001 (ip), vehicle: carboxymethylcellulose (CMC)
[13] = dose: 200.0 mg/kg/injection, schedule: Q01DX001 (ip), vehicle: carboxymethylcellulose (CMC)

Measured: T/C

O=C(Nc1cccc(C2=NCCN2)c1)c1ccc(C(=O)Nc2cccc(C3=NCCN3)c2)c(Cl)c1
inactive: [1] 101 % of control | dose: 1.0 mg/kg/injection, schedule: Q01DX009 (ip), vehicle: saline 97 % of control | [2] 95 % of control and 104 % of control | [3] 97 % of control | [4] 96 % of control and 98 % of control | [5] 95 % of control | [6] 93 % of control and 96 % of control | [7] 94 % of control | dose: 9.0 mg/kg/injection, schedule: Q01DX Z (ip), vehicle: methylcellulose (MC) 93 % of control | dose: 12.0 mg/kg/injection, schedule: Q01DX Z (ip), vehicle: carboxymethylcellulose (CMC) 95 % of control | dose: 12.0 mg/kg/injection, schedule: Q01DX Z (ip), vehicle: methylcellulose (MC) 95 % of control | dose: 18.0 mg/kg/injection, schedule: Q01DX Z (ip), vehicle: methylcellulose (MC) 109 % of control | dose: 27.0 mg/kg/injection, schedule: Q01DX Z (ip), vehicle: methylcellulose (MC) 106 % of control

O=[N+]([O-])C=C([SH2+])[SH2+].O=[N+]([O-])C=C([SH2+])[SH2+].[Co+3].c1ccc(C[P+](c2ccccc2)(c2ccccc2)c2ccccc2)cc1
inactive: dose: 75.0 mg/kg/injection, schedule: Q04DX003 (ip), vehicle: saline 93 % of control | dose: 150.0 mg/kg/injection, schedule: Q04DX003 (ip), vehicle: saline 93 % of control

O=C(Nc1cc(C2=NCCN2)cc(C2=NCCN2)c1)Nc1cc(C2=NCCN2)cc(C2=NCCN2)c1
inactive: [1] 101 % of control | [2] 98 % of control | [4] 95 % of control | [6] 101 % of control

COc1cc(/C=N/NC(=O)c2ccccc2OC)ccc1O
inactive: [8] 97 % of control | [9] 98 % of control | dose: 400.0 mg/kg/injection, schedule: Q01DX009 (ip), vehicle: Klucel (hydroxypropylcellulose) (HPC) 94 % of control

COc1ccc2c(c1)c1c(C)c3cnccc3c(C)c1n2C
inactive: dose: 25.0 mg/kg/injection, schedule: Q01DX001 (ip), vehicle: saline 100 % of control | dose: 50.0 mg/kg/injection, schedule: Q01DX001 (ip), vehicle: saline 102 % of control | dose: 89.0 mg/kg/injection, schedule: Q01DX001 (ip), vehicle: carboxymethylcellulose (CMC) 102 % of control | dose: 267.0 mg/kg/injection, schedule: Q01DX001 (ip), vehicle: carboxymethylcellulose (CMC) 107 % of control | [10] 117 % of control | dose: 400.0 mg/kg/injection, schedule: Q01DX001 (ip), vehicle: saline 124 % of control
active: dose: 265.0 mg/kg/injection, schedule: Q01DX001 (ip), vehicle: saline 152 % of control

C=CCC(N)Cc1ccccc1 (stereo unspecified)
inactive: dose: 6.25 mg/kg/injection, schedule: Q01DX009 (ip), vehicle: saline 101 % of control | dose: 12.5 mg/kg/injection, schedule: Q01DX009 (ip), vehicle: saline 113 % of control | dose: 25.0 mg/kg/injection, schedule: Q01DX009 (ip), vehicle: saline 101 % of control | dose: 25.0 mg/kg/injection, schedule: Q04DX003 (ip), vehicle: saline 96 % of control | dose: 50.0 mg/kg/injection, schedule: Q01DX009 (ip), vehicle: saline 109 % of control | dose: 50.0 mg/kg/injection, schedule: Q04DX003 (ip), vehicle: saline 105 % of control | dose: 100.0 mg/kg/injection, schedule: Q04DX003 (ip), vehicle: saline 102 % of control

Cc1ccncc1C#N
inactive: dose: 6.0 mg/kg/injection, schedule: Q04DX003 (ip), vehicle: saline 98 % of control | dose: 12.0 mg/kg/injection, schedule: Q04DX003 (ip), vehicle: saline 98 % of control | dose: 24.0 mg/kg/injection, schedule: Q04DX003 (ip), vehicle: saline 98 % of control

CCOC(=O)c1ccc(NCc2nc3nc(N)nc(N)c3[nH]2)cc1
inactive: dose: 75.0 mg/kg/injection, schedule: Q01DX001 (ip), vehicle: other 102 % of control | dose: 150.0 mg/kg/injection, schedule: Q01DX001 (ip), vehicle: other 97 % of control | dose: 300.0 mg/kg/injection, schedule: Q01DX001 (ip), vehicle: other 97 % of control

Cc1[nH]c(=S)[nH]c(=O)c1CN(CCO)CCO
inactive: dose: 50.0 mg/kg/injection, schedule: Q01DX001 (ip), vehicle: Klucel (hydroxypropylcellulose) (HPC) 123 % of control | dose: 50.0 mg/kg/injection, schedule: Q01DX009 (ip), vehicle: Klucel (hydroxypropylcellulose) (HPC) 96 % of control | dose: 50.0 mg/kg/injection, schedule: Q04DX003 (ip), vehicle: Klucel (hydroxypropylcellulose) (HPC) 108 % of control | dose: 100.0 mg/kg/injection, schedule: Q01DX001 (ip), vehicle: Klucel (hydroxypropylcellulose) (HPC) 101 % of control | [8] 101 % of control | [11] 102 % of control | dose: 200.0 mg/kg/injection, schedule: Q01DX001 (ip), vehicle: Klucel (hydroxypropylcellulose) (HPC) 101 % of control | [9] 123 % of control | dose: 200.0 mg/kg/injection, schedule: Q04DX003 (ip), vehicle: Klucel (hydroxypropylcellulose) (HPC) 91 % of control

O=[N+]([O-])c1ccc(S(=O)(=O)OCc2ccccc2OS(=O)(=O)c2ccc([N+](=O)[O-])cc2)cc1
inactive: dose: 25.0 mg/kg/injection, schedule: Q01DX009 (ip), vehicle: saline sonified 103 % of control | dose: 50.0 mg/kg/injection, schedule: Q01DX009 (ip), vehicle: saline sonified 95 % of control | dose: 100.0 mg/kg/injection, schedule: Q01DX009 (ip), vehicle: saline sonified 100 % of control | [11] 91 % of control

c1ccc([P+](CCC[P+](c2ccccc2)(c2ccccc2)c2ccccc2)(c2ccccc2)c2ccccc2)cc1
inactive: [3] 105 % of control | dose: 2.0 mg/kg/injection, schedule: Q04DX003 (ip), vehicle: saline 106 % of control | [5] 108 % of control | dose: 4.0 mg/kg/injection, schedule: Q04DX003 (ip), vehicle: saline 101 % of control | [7] 107 % of control | dose: 8.0 mg/kg/injection, schedule: Q04DX003 (ip), vehicle: saline 94 % of control and 97 % of control

COc1ccc(Nc2ccc3c4c(cccc24)C(=O)N(c2ccc(OC)cc2)C3=O)cc1
inactive: dose: 100.0 mg/kg/injection, schedule: Q04DX002 (ip), vehicle: saline with Tween-80 92 % of control | dose: 200.0 mg/kg/injection, schedule: Q04DX002 (ip), vehicle: saline with Tween-80 95 % of control | dose: 400.0 mg/kg/injection, schedule: Q04DX002 (ip), vehicle: saline with Tween-80 92 % of control

COc1ccc(CO)cc1
inactive: dose: 75.0 mg/kg/injection, schedule: Q04DX003 (ip), vehicle: Klucel (hydroxypropylcellulose) (HPC) 95 % of control | dose: 150.0 mg/kg/injection, schedule: Q04DX003 (ip), vehicle: Klucel (hydroxypropylcellulose) (HPC) 101 % of control | dose: 300.0 mg/kg/injection, schedule: Q04DX003 (ip), vehicle: Klucel (hydroxypropylcellulose) (HPC) 91 % of control

CCCCC(CCCC)(S(=O)(=O)CC)S(=O)(=O)CC
inactive: [12] 104 % of control | dose: 177.6 mg/kg/injection, schedule: Q01DX001 (ip), vehicle: carboxymethylcellulose (CMC) 94 % of control and 104 % of control | [13] 89 % of control | dose: 266.8 mg/kg/injection, schedule: Q01DX001 (ip), vehicle: carboxymethylcellulose (CMC) 98 % of control and 88 % of control | dose: 600.0 mg/kg/injection, schedule: Q01DX001 (ip), vehicle: carboxymethylcellulose (CMC) 98 % of control and 92 % of control

Ic1ccc(C2CC(c3ccccc3)=NN2c2ccccc2)cc1 (stereo unspecified)
inactive: dose: 100.0 mg/kg/injection, schedule: Q01DX009 (ip), vehicle: saline with Tween-80 96 % of control | dose: 200.0 mg/kg/injection, schedule: Q01DX009 (ip), vehicle: saline with Tween-80 92 % of control | dose: 400.0 mg/kg/injection, schedule: Q01DX009 (ip), vehicle: saline with Tween-80 91 % of control

O=c1[nH]c(=O)n(C2CCCO2)cc1I (stereo unspecified)
inactive: [12] 95 % of control | [13] 98 % of control | [10] 93 % of control

O=[N+]([O-])c1cccc(CNc2ccccc2)c1
inactive: dose: 100.0 mg/kg/injection, schedule: Q01DX001 (ip), vehicle: saline with Tween-80 98 % of control | dose: 200.0 mg/kg/injection, schedule: Q01DX001 (ip), vehicle: saline with Tween-80 95 % of control | dose: 400.0 mg/kg/injection, schedule: Q01DX001 (ip), vehicle: saline with Tween-80 93 % of control
